The test system of one experiment is MCF7. Briefly: Cytotoxicity against human MCF7 cells assessed as cell viability after 48 hrs by MTT assay. The class given is functional, cell-based. To be noted: MCF7, 48 h.
The next experiment has as its system HT-29. Briefly: Cytotoxicity against human HT-29 cells assessed as cell viability after 48 hrs by MTT assay. The class given is functional, cell-based. To be noted: HT-29, 48 h.

What is called IC50 is the concentration that inhibits the measured activity by half.

With `C=CCCC[C@@H]1OC(=O)CNC(=O)[C@H](Cc2ccccc2)N(C)C(=O)[C@@H]2CCCN2C(=O)[C@H](Cc2ccccc2)N(C)C(=O)[C@H](C(C)C)NC(=O)C1(C)C` [COCOSAMIDE A], the IC50 in the experiment on MCF7 was 30 µM; in the experiment with HT-29, 24 µM.
For `C#CCCC[C@@H]1OC(=O)CNC(=O)[C@H](Cc2ccccc2)N(C)C(=O)[C@@H]2CCCN2C(=O)[C@H](Cc2ccccc2)N(C)C(=O)[C@H](C(C)C)NC(=O)C1(C)C` [COCOSAMIDE B], the figures for the 50% inhibitory concentration (IC50) in the experiment with MCF7 and in the experiment on HT-29 were 39 µM and 11 µM, respectively.
Regarding `CCCCCCC[C@@H](C/C=C/CCC(=O)N(C)C/C(=C\Cl)CC(=O)CC(=O)NC[C@H](O)CC(=O)OC)OC` [MALYNGAMIDE 3], the values for the IC50 in the experiment on MCF7 and with HT-29 were 29 µM and 48 µM, respectively.
For `CC(=O)O[C@H]1C(=O)[C@@]2(C)[C@H]([C@H](OC(=O)c3ccccc3)[C@]3(O)C[C@H](OC(=O)[C@H](O)[C@@H](NC(=O)c4ccccc4)c4ccccc4)C(C)=C1C3(C)C)[C@]1(OC(C)=O)CO[C@@H]1C[C@@H]2O` [PACLITAXEL], in that order: 0.006 µM and 0.007 µM.

The values are drawn from ChEMBL document CHEMBL1773013, “Malyngamide 3 and cocosamides A and B from the marine cyanobacterium Lyngbya majuscula from Cocos Lagoon, Guam” (J Nat Prod, 2011).
